Here are results for four compounds from US8415344B2, “Method of treating depression” (Brookhaven Science Associates, LLC, priority 2009, dated 2013).

For experiment [1] the following is noted: Rothstein et al.; Lipski et al.; cited from earlier work.
The subject of experiment [2] is rats exhibiting learned helplessness (cLH rat line). Put plainly: Learned helplessness testing (lever-press escape paradigm) of cLH rats pre- and post-treatment. Type of experiment: in vivo. The conditions noted are these: oral diazoxide dissolved in NaOH, 10, 30 or 60 mg per day, three days.
Protocol: At the age of 9 weeks, male rats are tested for learned helplessness. Testing consists of an escape paradigm, were 0.8 mA, 60 sec foot-shocks can be interrupted with a lever press. A trial not terminated within 20 seconds is considered a failure, and 10 or more failed trials out of 15 trials are treated as “helpless” phenotype. cNLH animals are exposed to a total of 20 unpredictable, unescapable foot-shocks (0.8 mA, 60 sec) 24 hours prior to testing. Five rats from the cLH rat line described in Example I are provided with orally administered diazoxide dissolved in NaOH over a period of three days. Two animals received 60 mg per day two received 30 mg, and one received 10 mg. Three rats in the control group received no treatment.
The test system of experiment [3] is astrocyte glutamate transporters. The conditions noted are these: Sun et al.; cited from earlier work.

Molecules are shown by their SMILES.

As for `CO/N=C(\C(=O)N[C@@H]1C(=O)N2C(C(=O)O)=C(CSc3nc(=O)c(=O)[nH]n3C)CS[C@H]12)c1csc(N)n1` [Ceftriaxone], the “effectiveness in studies of neuroprotection” value in experiment [1] is listed as “particularly effective”.

As for `CC1=NS(=O)(=O)c2cc(Cl)ccc2N1` [diazoxide], the “number of lever presses post-treatment relative to pre-treatment” value in experiment [2] is “substantial increase in the number of lever presses”. Also, in experiment [3], the “stimulating the uptake of glutamate by astrocyte glutamate transporters” value (shortened to “stimulating the uptake of glutamate”) is recorded as “shown to be effective”.

Turning to `CC(C)NC(C)(C)C(C)C` [iptakalim], the “stimulating the uptake of glutamate” value in experiment [3] was “shown to be effective”.

Turning to `CC(N/C(=N\C#N)Nc1ccncc1)C(C)(C)C` (centres unmarked) [pinacidil], the “stimulating the uptake of glutamate” value in experiment [3] is reported as “shown to be effective”.
